Results published in US12692223B2, “Phenyl-sulfamoyl-benzoic acid derivatives as ERAP1-modulators” (GREY WOLF THERAPEUTICS LIMITED, priority 2021, dated 2026).
pIC50: −log10 of the molar value.

These compounds were tested against T1, ERAP1 (Homo sapiens, UniProt Q9NZ08) (assay: ERAP1 mediated hydrolysis of an amide substrate measured in a biochemical system (10-mer inhibition assay)). Conditions: purified ERAP1(37-941)-10His; 10-mer substrate; 23° C. for 1 h; excitation 279 nm, emission 355 nm; read-out: IC50 vs Decapeptide WRVYEKC(Dnp)ALK-acid (where Dnp is Dinitrophenyl maleimide) (10-mer).
T1 construct: Purified ERAP1(37-941)-10His (ERAP1)
Procedure, shortened: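 Purified ERAP1(37-941)-10His in 25 mM Bis-tris propane, 0.05% HPMC, pH 7.75, with compound, then 100 μM 10-mer WRVYEKC(Dnp)ALK or 240 μM L-AMC added (stock concentrations before 1:1 mixing), 1 h at 23 °C. Fluorescence read at ex 279/em 355 nm (10-mer) or ex 365/em 442 nm (L-AMC); IC50 from 4-parameter fit.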

T1 sequence (Q9NZ08 37-941): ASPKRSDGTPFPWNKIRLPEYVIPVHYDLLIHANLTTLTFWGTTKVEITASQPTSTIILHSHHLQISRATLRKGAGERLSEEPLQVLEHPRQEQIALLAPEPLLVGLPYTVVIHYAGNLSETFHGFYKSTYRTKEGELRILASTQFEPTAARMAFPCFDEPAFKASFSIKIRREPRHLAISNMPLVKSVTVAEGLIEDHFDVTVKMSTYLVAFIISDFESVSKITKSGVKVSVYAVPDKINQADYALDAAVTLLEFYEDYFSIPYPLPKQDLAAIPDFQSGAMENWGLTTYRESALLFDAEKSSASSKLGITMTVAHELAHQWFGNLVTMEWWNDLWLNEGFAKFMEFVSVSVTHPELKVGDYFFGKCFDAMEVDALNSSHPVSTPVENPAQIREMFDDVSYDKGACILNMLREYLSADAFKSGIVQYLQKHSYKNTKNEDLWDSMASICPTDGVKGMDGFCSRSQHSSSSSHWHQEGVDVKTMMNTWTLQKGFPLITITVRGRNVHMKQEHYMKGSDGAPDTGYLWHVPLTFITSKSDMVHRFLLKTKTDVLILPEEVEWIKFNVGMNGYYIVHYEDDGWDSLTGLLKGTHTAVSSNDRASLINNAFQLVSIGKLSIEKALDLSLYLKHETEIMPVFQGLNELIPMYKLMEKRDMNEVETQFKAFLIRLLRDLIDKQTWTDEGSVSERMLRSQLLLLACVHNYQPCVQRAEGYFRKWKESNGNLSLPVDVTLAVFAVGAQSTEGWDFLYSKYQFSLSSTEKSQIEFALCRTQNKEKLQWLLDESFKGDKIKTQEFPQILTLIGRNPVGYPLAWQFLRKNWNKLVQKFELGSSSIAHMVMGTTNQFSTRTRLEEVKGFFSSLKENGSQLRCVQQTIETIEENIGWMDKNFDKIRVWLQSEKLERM

pIC50, > 9.00:
N#Cc1cc(NS(=O)(=O)c2cc(C(=O)O)ccc2C2CC2)c(OCC23CC(C2)C3)cc1Cl [Example 76, 3-(N-(2-(bicyclo[1.1.1]pentan-1-ylmethoxy)− 4-chloro-5-cyanophenyl)sulfamoyl)-4-cyclopropylbenzoic acid]
N#Cc1cc(NS(=O)(=O)c2cc(C(=O)O)ccc2C2CC2)c(OC2CCC23CCC3)cc1Cl (centres unmarked) [Example 77, 3-(N-(4-chloro-5-cyano-2-(spiro[3.3]heptan-1-yloxy)phenyl)sulfamoyl)-4-cyclopropylbenzoic acid]
C[C@@H](Oc1cc(Cl)c(C#N)cc1NS(=O)(=O)c1cc(C(=O)O)ccc1C1CC1)C1CCC1 [Example 78, (R)-3-(N-(4-chloro-5-cyano-2-(1-cyclobutylethoxy)phenyl)sulfamoyl)-4-cyclopropylbenzoic acid]
N#Cc1cc(NS(=O)(=O)c2cc(C(=O)O)ccc2C2CC2)c(OCC23C4C5C6C4C2C6C53)cc1Cl (centres unmarked) [Example 79, 3-(N-(4-chloro-2-(cuban-1-ylmethoxy)-5-cyanophenyl)sulfamoyl)-4-cyclopropylbenzoic acid]
CC1(C)CCC1Oc1cc(Cl)c(C#N)cc1NS(=O)(=O)c1cc(C(=O)O)ccc1C1CC1 (centres unmarked) [Example 80, 3-(N-(4-chloro-5-cyano-2-(2,2-dimethylcyclobutoxy)phenyl)sulfamoyl)-4-cyclopropylbenzoic acid]
CC1(Oc2cc(Cl)c(C#N)cc2NS(=O)(=O)c2cc(C(=O)O)ccc2C2CC2)CCCC1 [Example 81, 3-(N-(4-chloro-5-cyano-2-((1-methylcyclopentyl)oxy)phenyl)sulfamoyl)-4-cyclopropylbenzoic acid]
N#Cc1cc(NS(=O)(=O)c2cc(C(=O)O)ccc2C2CC2)c(OCC2(C#N)CCC2)cc1Cl [Example 82, 3-(N-(4-chloro-5-cyano-2-((1-cyanocyclobutyl)methoxy)phenyl)sulfamoyl)-4-cyclopropylbenzoic acid]
N#Cc1cc(NS(=O)(=O)c2cc(C(=O)O)ccc2C2CC2)c(OC2CCCC2(F)F)cc1Cl (centres unmarked) [Example 83, 3-(N-(4-chloro-5-cyano-2-((2,2-difluorocyclopentyl)oxy)phenyl)sulfamoyl)-4-cyclopropylbenzoic acid]
COC1(COc2cc(Cl)c(C#N)cc2NS(=O)(=O)c2cc(C(=O)O)ccc2C2CC2)CCC1 [Example 87, 3-(N-(4-chloro-5-cyano-2-((1-methoxycyclobutyl)methoxy)phenyl)sulfamoyl)-4-cyclopropylbenzoic acid]
N#Cc1cc(NS(=O)(=O)c2cc(C(=O)O)ccc2C2CC2)c(O[C@H]2C[C@H](O)C2)cc1Cl [Example 96, 3-(N-(4-chloro-5-cyano-2-(trans-3-hydroxycyclobutoxy)phenyl)sulfamoyl)-4-cyclopropylbenzoic acid]
N#Cc1cc(NS(=O)(=O)c2cc(C(=O)O)ccc2C2CC2)c(O[C@@H]2CCC[C@H]2O)cc1Cl [Example 97, 3-(N-(4-chloro-5-cyano-2-(((1R,2R)−2-hydroxycyclopentyl)oxy)phenyl)sulfamoyl)-4-cyclopropylbenzoic acid]
CO[C@@H]1CCC[C@H]1Oc1cc(Cl)c(C#N)cc1NS(=O)(=O)c1cc(C(=O)O)ccc1C1CC1 [Example 109, 3-(N-(4-chloro-5-cyano-2-(((1R,2R)-2-methoxycyclopentyl)oxy)phenyl)sulfamoyl)-4-cyclopropylbenzoic acid]
CC1(C)CCC[C@H]1Oc1cc(F)c(-n2cnnn2)cc1NS(=O)(=O)c1cc(C(=O)O)ccc1C1CC1 [Example 125, (R)-4-cyclopropyl-3-(N-(2-((2,2-dimethylcyclopentyl)oxy)-4-fluoro-5-(1H-tetrazol-1-yl)phenyl)sulfamoyl)benzoic acid]
N#Cc1cc(NS(=O)(=O)c2cc(C(=O)O)ccc2C2CC2)c(OC2CCC(F)(F)C2)cc1Cl (centres unmarked) [Example 134, 3-(N-(4-chloro-5-cyano-2-((3,3-difluorocyclopentyl)oxy)phenyl)sulfa-moyl)-4-cyclopropylbenzoic acid]

pIC50, < 8.30:
CO[C@H]1C[C@H](Oc2cc(Cl)c(C#N)cc2NS(=O)(=O)c2cc(C(=O)O)ccc2C2CC2)C1 [Example 95, 3-(N-(4-chloro-5-cyano-2-(trans-3-methoxycyclobutoxy)phenyl)sulfamoyl)-4-cyclopropylbenzoic acid]
CC1(C)CC(C)(C)C1Oc1cc(Cl)c(C#N)cc1NS(=O)(=O)c1cc(C(=O)O)ccc1C1CC1 [Example 101, 3-(N-(4-chloro-5-cyano-2-(2,2,4,4-tetramethylcyclo-butoxy)phenyl)sulfamoyl)-4-cyclopropylbenzoic acid]
N#Cc1cc(NS(=O)(=O)c2cc(C(=O)O)ccc2C2CC2)c(O[C@H]2C[C@@H](O)C2)cc1Cl [Example 112, 3-(N-(4-chloro-5-cyano-2-(cis-3-hydroxycyclobutoxy)phenyl)sulfamoyl)-4-cyclopropylbenzoic acid]
